# Measurements reported in patent publication US20150297652A1, “COMPOSITIONS AND METHODS FOR THEIR DERMATOLOGICAL USE” (VITA NATURALE, LLC, priority 2012, published 2015).
# Assays:
# chronic scalp dermatitis = assay: Topical treatment of chronic scalp dermatitis (Subject 3); assay type: in vivo, human; settings: past treatment of the scalp with clobetasol 0.05% solution
# Protocol: (§1) A topical composition of the present invention, referred to herein as Composition 1, comprising as active ingredients Albizzia lebbeck (1%), schisandra chinensis (0.1%), and ophiopogon japonicus (2%), as well as petrolatum, water, glycerin, sodium hyaluronate, dimethicone, glyceryl stearate, acrylates, disodium EDTA, capric triglyceride, propanediol, phenoxyethanol, and triethanolamine, was prepared and administered to subjects as follows:
# Subject 3 suffered from chronic scalp dermatitis characterized by persistent severe itching and scaling of the scalp. […] Untreated areas were persistently itchy and scaly.
# chronic eyelid eczema = assay: Topical treatment of chronic eyelid eczema (Subject 1); assay type: in vivo, human; settings: previously treated with emollients and hydrocortisone
# Protocol: as §1, with “follows: Subject 1 suffered from chronic eyelid eczema characterized by persistent severe itching and scaling of the eyelids.” for “follows:”
Compound,adverse side effects (chronic scalp dermatitis),improvement with previous treatment (chronic eyelid eczema)
C[C@H]1C[C@H]2[C@@H]3CCC4=CC(=O)C=C[C@]4(C)[C@@]3(F)[C@@H](O)C[C@]2(C)[C@@]1(O)C(=O)CCl [clobetasol],adverse side effects including acne and skin atrophy,
C[C@]12CCC(=O)C=C1CC[C@@H]1[C@@H]2[C@@H](O)C[C@@]2(C)[C@H]1CC[C@]2(O)C(=O)CO [hydrocortisone],,minimal improvement
